# Measurements: patent US20250339391A1, “METHODS FOR EFFECTIVE MANAGEMENT OF PAIN” (South Rampart Pharma, Inc., priority 2024, published 2025)
# “Also recorded” adds a separate entry of the source. Like-named read-outs stand apart in the source and are kept apart here.
# Key:
# [1] = test system: CD1 mice; conditions: for signs of hepatotoxicity: CD-1 mice; for animals dead in 48 hours: FIG. 1F experiment, data not shown
# Procedure: After drug administration, animals were returned to their respective cages and maintained with food and water provided ad libitum for the next 12 h. Animals were then euthanized under 5% isoflurane anesthesia after 12 h, and whole blood samples were collected transcardially in sterile microcentrifuge tubes without anti-coagulants. Whole blood samples were stored at room temperature (25° C.) for 30 min, allowing them to coagulate, which was centrifuged at 1,000 g for 5 min at 4° C. to isolate serum samples from whole blood, which were collected, aliquoted, and stored at −80° C. for identification of NAPQI, and liver function tests (LFTs).
# LFTs were done on fresh serum samples, and not on thawed frozen serum samples to avoid denaturing LFT transaminases due to freeze/thaw of frozen serum.
# Employing a consistent lethal dose for both compounds streamline the experimental design and facilitates data interpretation. This approach aligns with FDA guidelines on Bioequivalence and Bioavailability studies for estimating the maximum safe starting dose in humans, a strategy further substantiated by others. At 12 h post-injection, mice were deeply anesthetized under 5% isoflurane for more than 5 min and formalin-fixed via transcardial perfusion with 10% Neutral Buffered Formalin (NBF) after exsanguination using 0.9% NaCl. Liver tissues were extracted and stored in NBF for 24 h post fixation, after which they were then transferred to 80% EtOH for storage prior to paraffin embedding, sectioning, and immunological staining. FFPE blocks were sectioned into 5 μm thick slices on regular frost-free plus slides and dried overnight on a slide warmer. After deparaffination, sections were stained with validated antibodies for nitrotyrosine and ZO-1 (tight junctions). […] Nitrotyrosine labeling was detected with 3′3′-Diaminobenzidine (DAB) staining, and nitrotyrosine labeled hepatic sections were imaged at 100× magnification in brightfield using a Nikon Eclipse TS100 microscope with NIS-Elements BR 3.0 software (NIKON Inc, Melville, NY, USA). Slides with ZO-1 staining were imaged in z-stacks obtained at 20× magnification using Olympus FV-1200 confocal microscope with Fluoview software FV10-ASW Version 04.02.02.09 (Olympus Corp Center Valley, PA, USA). Quantification of ZO-1 staining hepatic tight junctions was carried out by unbiassed image analysis calculating area sum of pixel^2 of the green channel staining ZO-lusing CellSens software (Olympus Corp Center Valley, PA, USA).
# [2] = test system: CD-1 male mice; conditions: for mortality by 72 hours: n=10
# Procedure: CD-1 male mice obtained from Charles River Laboratories underwent a one-week acclimation period. They were housed under a 12-hour day/night cycle, with unrestricted access to food and water. Before experimentation, mice were fasted for 15 hours. […] Each treatment group consisted of 10 mice. Post-dosing, the mice were monitored at 6-hour intervals over 72 hours for signs of becoming moribund. An investigator blinded to the treatment groups conducted the moribund state assessment.
# [3] = test system: Sprague-Dawley rats; experiment: CFA-induced inflammatory pain / Hargreaves thermal sensitivity assay; type: in vivo, rat; conditions: for analgesia, paw withdrawal latencies: 100 mg/kg
# Source text: In these same cohorts of animals, we simultaneously measured their thermal nociception to hyperalgesia with the Hargreaves test using the plantar test apparatus (Ugo Basile 37570). In this experimental setup, the rodents are placed in plastic cages on top of a glass surface, and their hind paws are subjected to an infrared heat stimulus. One hind paw at a time is stimulated with the light source (noxious stimuli) until the animal retracts the paw from the glass surface because of the stimulus. Baseline withdrawal thresholds (latency) of both the right and left paws were recorded, and animals were assigned to different treatment groups so that each group had approximately equal withdrawal threshold averages in both paws. After baseline testing, treated animals received subcutaneous plantar injection (150 μl) of 50% CFA into the left hind paw, while control animals received a plantar injection (150 μl) of 0.9% NaCl into their left hind paw. CFA induces inflammation, resulting in a left hind paw that is hypersensitive to the thermal stimulus, while the right hind paw serves as a within-subject baseline for each animal. To obtain Hargreaves withdrawal latency recordings, each animal was placed in an individual plastic observation compartment on a glass platform, which provided access to the plantar surface of the hind paws from underneath. After acclimation to the environment for 30 min, thermal hypersensitivity was assessed by stimulating the mid-plantar area of each hind paw with a bright light source attached to the meter (Ugo Basile 37570) until animals withdrew the paw from the surface. The withdrawal threshold was defined as the average time (s) required for the rat to withdraw the stimulated paw. A brisk withdrawal of the paw (often followed by a sustained retraction and/or licking) was considered a positive response, but paw withdrawals due to locomotion or weight shifting were not counted. The Hargreaves studies were conducted with the plantar stimulation device that automatically registers the time (s) necessary to elicit paw withdrawal in order to eliminate bias in determining paw withdrawal thresholds. A cutoff of 20 s is pre-programmed so that the light source shuts off at that maximal period so as to not induce any burns on the plantar surface of the rodents. The Hargreaves test permits measurement of ipsilateral and contralateral heat thresholds, allowing each animal to serve as its own internal control in unilateral pain models. In addition, the Hargreaves test enables quantification of heat thresholds in unrestrained animals, reducing the likelihood of stress-induced responses.
# [4] = test system: CD-1 male mice; experiment: LPS fever induction antipyresis assay; type: in vivo, mouse; conditions: LPS 100 μg/kg ip, drug 75 mg/kg po, 2 h post drug
# Procedure: Antipyresis experiments were carried out with n=60 CD-1 male mice weighing between 45-50 g. All mice were kept in a 12-h day/12-h night cycle with free access to food and water ad libitum. After habituating and acclimating the mice for a week, each mouse was briefly anesthetized for 1 min with 1% isoflurane and implanted subcutaneously a transmitter probe that records core body temperature—Implantable Programmable Temperature Transponder (IPTT-300) by Bio Medic Data Systems (BMDS), DE, USA. The mice were allowed to recover for at least one week from the surgery before any recordings were made and observed in their home cages prior to pyrogen challenge for inducing fever. Temperatures were recorded using the BMDS DAS-8027-IUS data reading system.
# All mice were fasted overnight (15 h) with free access to water ad libitum prior to the pyrogen challenge. For the induction of fever, LPS from E. coli (100 μg/kg, 0111:B4) (MilliporeSigma, Billerica, MA, USA) was used. Mice received either LPS in 0.9% saline (sterile) (vehicle) or just 0.9% saline as an intraperitoneal (ip) injection.
# Drug injection/concentration: All drugs and vehicle (10% DMSO: 10% labrasol:80% PEG400) were administered by oral gavage, PO dosing. Each dosing volume was ˜0.3-0.4 mL per mouse. […] We chose this dose to record antipyretic effect in a low dose that doesn't cause hypothermia in mice.
# [5] = 992 oral gavage (ApAP 150 mg/kg, SRP-001 402 mg/kg)
# [6] = young male and young female rats
SMILES,"centrilobular necrosis / nitrotyrosine staining of liver sections ([1]; CD1 mice, 600 mg/kg PO, 12 h)","liver transaminases ALT and AST ([1]; CD1 mice, 600 mg/kg, serum)",signs of hepatotoxicity ([1]; 600 mg/kg),animals dead in 48 hours [1],"TUNEL-positive apoptotic nuclei in liver sections ([1]; mouse, in vivo, 600 mg/kg)","mortality by 72 hours [2, 5]","analgesia, paw withdrawal latencies ([3]; aged male rats)",antinociception in Hargreaves assay ([3]; young female and male rats and aged male rats),"analgesia, paw withdrawal latencies [3, 6]",antipyresis [4],"hepatic tight junctions by ZO-1 staining ([1]; CD1 mice, 600 mg/kg PO, 12 h, 600 mg/kg)","mortality by 72 hours ([2]; 1,984 oral gavage (ApAP 300 mg/kg))","mortality by 72 hours ([2]; 3,969 oral gavage (ApAP 600 mg/kg))",mortality reached within 72 hours (Kaplan-Meier) ([2]; highest dose)
"CCN(CC)C(=O)c1ccccc1S(=O)(=O)NCC(=O)Nc1ccc(O)cc1 [SRP-001, N,N-diethyl-2-[[2-(4-hydroxyanilino)-2-oxo-ethyl]sulfamoyl]benzamide]",lack nitrotyrosine staining,not observed,no signs of hepatotoxicity,none,almost no TUNEL signal,absence of mortality,significant analgesia,Antinociception was also confirmed,significant analgesia,comparable antipyresis,,,,
"CC(=O)Nc1ccc(O)cc1 [ApAP, acetaminophen]",,,hepatotoxicity is evident,75%,,absence of mortality,significant analgesia,,significant analgesia,comparable antipyresis,significant reduction in ZO-1-stained tight junctions; also recorded: marked decrease in ZO-1,1/10,3/10,70%
